Test results published in patent US11236059B2, “Targeted cytotoxic ratjadone derivatives and conjugates thereof” (HELMHOLTZ-ZENTRUM FUER INFEKTIONSFORSCHUNG GMBH, priority 2017, dated 2022).
Where two headings read alike, the source gives them in different places. Values belong to the compound of their own block, whether it stands above or below them. Numbered stars: 1 amine (or outer) side, 2 acyl side, 3 side chain; on linkers, the order of the positions; unused ones are H or OH. Square brackets hold non-standard residues; d marks the D form. Peptide text beside a SMILES is read from it. * marks the point of attachment. Pteroyl = Nc1nc2ncc(CNc3ccc(C(=O)*)cc3)nc2c(=O)[nH]1; Orn(N3) = [N-]=[N+]=NCCC[C@H](N)C(=O)O; γGlu = O=C(O)[C@H](CCC(=O)[*:2])N[*:1]

Assays:
[1] = control compounds; cited from earlier work
[2] = test system: KB 3.1 (DSMZ ACC 158) cells
[3] = test system: SKOV-3 (DSMZ ATCC HTB 77) cells; assay: cells; format: cell-based
Procedure: (§1) 60 μL of serial dilutions of the test compound were given to 120 μL of suspended cells (50.000/mL) in wells of 96-well plates. After 5 days of incubation growth inhibition (IC50) was determined using an MTT assay.^[64]

[4] = test system: A549 (DSMZ ACC 107) cells; assay: cells; format: cell-based
Procedure: as §1

[5] = test system: MCF-7 (DSMZ ACC 115) cells; assay: cells; format: cell-based
Procedure: as §1

[6] = biological target: T1, CRM1 (Homo sapiens, UniProt O14980); assay: Monitoring export inhibitory activity (translocation biosensor, HeLaRevBio cells); format: cell-based; conditions: HeLa cells stably expressing translocation biosensor, 1h of incubation; read-out: IC50 [nM] CRM1 (nuclear export inhibition)
T1 construct: HeLa cells stably expressing a fluorescent translocation biosensor (HeLaRevBio); endogenous in cells; host or cells: HeLa (HeLaRevBio in A7; HeLa in A8)
T1 sequence (O14980 whole entry): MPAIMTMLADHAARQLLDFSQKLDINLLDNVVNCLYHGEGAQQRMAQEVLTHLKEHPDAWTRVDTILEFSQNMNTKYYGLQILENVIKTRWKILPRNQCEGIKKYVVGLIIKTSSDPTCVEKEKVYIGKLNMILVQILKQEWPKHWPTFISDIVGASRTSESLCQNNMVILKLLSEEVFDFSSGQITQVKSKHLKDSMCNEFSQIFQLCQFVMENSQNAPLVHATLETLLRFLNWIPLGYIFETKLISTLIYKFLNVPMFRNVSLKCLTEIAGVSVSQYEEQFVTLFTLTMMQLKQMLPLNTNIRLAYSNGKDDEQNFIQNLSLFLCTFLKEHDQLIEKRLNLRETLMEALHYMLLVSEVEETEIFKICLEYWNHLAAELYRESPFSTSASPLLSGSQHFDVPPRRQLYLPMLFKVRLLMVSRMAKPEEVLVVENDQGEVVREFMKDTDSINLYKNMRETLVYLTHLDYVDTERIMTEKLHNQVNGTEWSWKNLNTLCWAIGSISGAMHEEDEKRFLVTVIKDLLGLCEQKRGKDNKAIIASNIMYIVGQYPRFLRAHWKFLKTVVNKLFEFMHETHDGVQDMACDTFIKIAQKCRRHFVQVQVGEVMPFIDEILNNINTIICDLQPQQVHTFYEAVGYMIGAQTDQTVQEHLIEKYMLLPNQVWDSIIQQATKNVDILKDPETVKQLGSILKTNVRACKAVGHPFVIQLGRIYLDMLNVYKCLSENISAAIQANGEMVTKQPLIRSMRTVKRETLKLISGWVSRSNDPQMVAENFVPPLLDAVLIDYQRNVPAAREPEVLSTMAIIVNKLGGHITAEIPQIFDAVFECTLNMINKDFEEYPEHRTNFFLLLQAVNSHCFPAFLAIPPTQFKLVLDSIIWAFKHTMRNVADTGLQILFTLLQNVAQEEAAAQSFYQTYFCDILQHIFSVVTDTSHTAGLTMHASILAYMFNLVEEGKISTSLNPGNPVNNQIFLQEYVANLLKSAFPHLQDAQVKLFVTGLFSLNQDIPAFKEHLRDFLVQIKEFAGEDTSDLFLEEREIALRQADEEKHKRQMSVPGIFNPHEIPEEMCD
Procedure: Export inhibitory ability of compounds was evaluated with the translocation biosensor system. This cellular assay depends on a recombinantly expressed fusion protein consisting of a nuclear localization signal (SV40-NLS), glutathione S-transferase (GST), green fluorescent protein (GFP) and a nuclear export signal (HIV1-RevNES). Due to the two transport signals (NLS/NES), the biosensor is permanently shuttling between nucleus and cytoplasm but resides prominently in the cytoplasm due to a comparatively stronger NES. Export inhibiting compound induce a nuclear accumulation of the GFP-signal^[65,66] Cell lines were maintained as recommended by the American Type Culture Collection in DMEM containing 5% glutamine (Thermo Fisher Scientific, Waltham, USA) supplemented with 10% FBS (Thermo Fisher Scientific, Waltham, USA). For quantifying the nuclear export inhibitory effect, HeLa cells stably expressing a fluorescent translocation biosensor (HeLaRevBio)^[67] were seeded into black 96 well μclear plates (Greiner, Germany). They next day compounds were added covering an appropriate concentration range. After 1h of incubation, cells were fixed in 4% PFA for 10 min and permeabilized with 0.1% Triton X 100 in PBS for 5 min. After washing with PBS nuclei were labeled with Hoechst H33342 (30 min 10 μg/ml). The intracellular distribution of the biosensor-dependent GFP signal was quantitatively evaluated with the high content imaging system ImageXpress MicroXLS (Molecular Devices, Sunnyvale, USA). By using the translocation enhanced application module (Molecular Devices, Sunnyvale, USA) the GFP-intensity was quantified in the cytoplasm and nuclear region. As final readout the difference of Mean Inner and Mean Outer Intensity was calculated. IC50s of nuclear export inhibition were calculated using Sigma Plot with four parameter logistics curve regression (Systat Software GmbH, Erkrath, Germany). […] The following day compounds were added at 125 nM final concentration.

[7] = test system: L-929 (DSMZ ACC 2) cells; assay: Cell proliferation assay (MTT), L-929; format: cell-based; conditions: read-out: IC50 [nM] L-929
Procedure: as §1

[8] = test system: KB 3.1 (DSMZ ACC 158) cells; assay: cells; conditions: Homo sapiens, KB 3-1, 120 h, read-out: IC50 [nM] KB-3.1, growth inhibition, 5 days of incubation, MTT assay
[9] = read-out: IC50 [nM] KB-3.1 (carrier molecules), growth inhibition, 5 days of incubation, MTT assay
[10] = growth inhibition, 5 days of incubation, MTT assay, read-out: IC50 [nM] SK-OV-3 (carrier molecules)
[11] = growth inhibition, 5 days of incubation, MTT assay, read-out: IC50 [nM] A-549 (carrier molecules)
[12] = growth inhibition, 5 days of incubation, MTT assay, read-out: IC50 [nM] MCF-7 (carrier molecules)

SMILES: CCN(CC)CCOC(=O)c1ccc(N)cc1 [Procaine, procaine]
stability in mouse plasma [1]: unstable

IC50 [2, 9]: > 727000 nM | IC50 [3, 10]: > 727000 nM | IC50 [4, 11]: > 727000 nM | IC50 [5, 12]: > 727000 nM
SMILES: CC(C)C[C@H](NC(=O)[C@H](CCCN=[N+]=[N-])NC(=O)[C@H](Cc1ccc(O)cc1)NC(=O)[C@H](CO)NC(=O)[C@H](Cc1c[nH]c2ccccc12)NC(=O)[C@H](Cc1c[nH]cn1)NC(=O)[C@@H]1CCC(=O)N1)C(=O)N[C@@H](CCCNC(=N)N)C(=O)N1CCC[C@H]1C(=O)NCC(N)=O [L-N3-Orn-LHRH, (S)-1-(((S)-2-((S)-2-((S)-2-((S)-2-((S)-3-(1H-imidazol-4-yl)-2-((S)-5-oxopyrrolidine-2-carboxamido)propanamido)-3-(1H-indol-3-yl)propanamido)-3-hydroxypropanamido)-3-(4-hydroxyphenyl)propanamido)-5-azidopentanoyl)-L-leucyl-L-arginyl)-N-(2-amino-2-oxoethyl)pyro-lidine-2-carboxamide]

IC50 [2]: 1110 nM | IC50 [3]: 190 nM | IC50 [4]: 318 nM | IC50 [5]: 47.4 nM
SMILES: CC(C)C[C@H](NC(=O)C(CCCN=[N+]=[N-])NC(=O)[C@H](Cc1ccc(O)cc1)NC(=O)[C@H](CO)NC(=O)[C@H](Cc1c[nH]c2ccccc12)NC(=O)[C@H](Cc1c[nH]cn1)NC(=O)[C@@H]1CCC(=O)N1)C(=O)N[C@@H](CCCNC(=N)N)C(=O)N1CCC[C@H]1C(=O)NCC(N)=O (stereo in doubt) [D-N3-Orn-LHRH, (S)-1-(((R)-2-((S)-2-((S)-2-((S)-2-((S)-3-(1H-imidazol-4-yl)-2-((S)-5-oxopyrrolidine-2-carboxamido)propanamido)-3-(1H-indol-3-yl)propanamido)-3-hydroxypropanamido)-3-(4-hydroxyphenyl)propanamido)-5-azidopentanoyl)-L-leucyl-L-arginyl)-N-(2-amino-2-oxoethyl)pyrrolidine-2-carboxamide]

SMILES: C/C=C/[C@@H]1O[C@H]([C@H](O)/C=C/C=C(\C)C[C@@H](C)/C=C(C)\C=C\[C@H]2CC=CC(=O)O2)CC(=O)[C@@H]1C [19-Oxo-Ratjadone 9, (R)-6-((1E,3Z,5R,7E,9E,9E,11R)-11-hydroxy-3,5,7-trimethyl-11-((2S,5R,6S)-5-methyl-4-oxo-6-((E)-prop-1-en-1-yl)tetrahydro-2H-pyran-2-yl)undeca-1,3,7,9-tetraen-1-yl)-5,6-dihydro-2H-pyran-2-one]
IC50 [6]: 13.3 nM | IC50 ([2]; read-out: IC50 [nM] KB-3.1, growth inhibition, 5 days of incubation, MTT assay): 0.36 nM | IC50 ([7]; growth inhibition, 5 days of incubation, MTT assay): 24.3 nM | IC50 ([3]; growth inhibition, 5 days of incubation, MTT assay, read-out: IC50 [nM] SK-OV-3): 0.16 nM | IC50 ([4]; growth inhibition, 5 days of incubation, MTT assay, read-out: IC50 [nM] A-549): 0.1 nM | IC50 ([5]; growth inhibition, 5 days of incubation, MTT assay, read-out: IC50 [nM] MCF-7): 0.48 nM

IC50 [2, 9]: > 663000 nM | IC50 [3, 10]: > 663000 nM | IC50 [4, 11]: > 663000 nM | IC50 [5, 12]: > 663000 nM
SMILES: CC(C)C[C@H](NC(=O)[C@@H](CCCN=[N+]=[N-])NC(=O)[C@H](Cc1ccc(O)cc1)NC(=O)[C@H](CO)NC(=O)[C@H](Cc1c[nH]c2ccccc12)NC(=O)[C@H](Cc1c[nH]cn1)NC(=O)[C@@H]1CCC(=O)N1)C(=O)N[C@@H](CCCNC(=N)N)C(=O)N1CCC[C@H]1C(=O)NNC(N)=O [D-N3-Orn-Goserellin, (S)—N-((6S,9S,12R,15S,18S,21S,24S)-21-((1H-indol-3-yl)methyl)-1-amino-12-(3-azidopropyl)-6-((S)-2-(2-carbamoylhydrazine-1-carbonyl)pyrrolidine-1-carbonyl)-15-(4-hydroxybenzyl)-18-(hydroxymethyl)-25-(1H-imidazol-4-yl)-1-imino-9-isobutyl-8,11,14,17,20,23-hexaoxo-2,7,10,13,16,19,22-heptaazapentacosan-24-yl)-5-oxopyrrolidine-2-carboxamide]

IC50 [2, 9]: > 86400 nM | IC50 [4, 11]: > 86400 nM
SMILES: [N-]=[N+]=NCCC[C@H](NC(=O)[C@@H](CC(=O)O)NC(=O)[C@@H](CC(=O)O)NC(=O)[C@@H](CC(=O)O)NC(=O)[C@@H](CC(=O)O)NC(=O)[C@@H](CC(=O)O)NC(=O)CC[C@H](NC(=O)c1ccc(NCc2cnc3nc(N)nc(O)c3n2)cc1)C(=O)O)C(=O)O [FA-N3-5, N^2-(4-(((2-amino-4-hydroxypteridin-6-yl)methyl)amino)benzoyl)-N5-((R)-1-(((R)-1-(((R)-1-(((R)-1-(((R)-1-(((S)-4-azido-1-carboxybutyl)amino)-3-carboxy-1-oxopropan-2-yl)amino)-3-carboxy-1-oxopropan-2-yl)amino)-3-carboxy-1-oxopropan-2-yl)amino)-3-carboxy-1-oxopropan-2-yl)amino)-3-carboxy-1-oxopropan-2-yl)-L-glutamine] ({Pteroyl-γGlu}-[dD][dD][dD][dD][dD][Orn(N3)]-OH)

IC50 [2, 9]: > 140000 nM | IC50 [4, 11]: > 140000 nM
SMILES: [N-]=[N+]=NCCC[C@H](NC(=O)CC[C@H](NC(=O)c1ccc(NCc2cnc3nc(N)nc(O)c3n2)cc1)C(=O)O)C(=O)N[C@H](CCCCN)C(=O)O [FA-N3-9, ((S)-2-((S)-4-(4-(((2-amino-4-hydroxypteridin-6-yl)methyl)amino)benzamido)-4-carboxybutanamido)-5-azidopentanoyl)-D-lysine]

IC50 [2, 9]: > 405000 nM | IC50 [3, 10]: > 405000 nM | IC50 [4, 11]: > 405000 nM | IC50 [5, 12]: > 405000 nM
SMILES: CC(C)C[C@H](NC(=O)CNC(=O)[C@H](Cc1ccc(O)cc1)NC(=O)[C@H](CO)NC(=O)[C@H](Cc1c[nH]c2ccccc12)NC(=O)[C@H](Cc1c[nH]cn1)NC(=O)[C@@H]1CCC(=O)N1)C(=O)N[C@@H](CCCNC(=N)N)C(=O)N1CCC[C@H]1C(=O)NCC(N)=O [LHRH, (S)—N-(2-amino-2-oxoethyl)-1-(((S)-5-oxopyrrolidine-2-carbonyl)-L-histidyl-L-tryptophyl-L-seryl-L-tyrosylglycyl-L-leucyl-L-arginyl)pyrrolidine-2-carboxamide, reference compound]

SMILES: C/C=C/[C@@H]1O[C@H](C(=O)/C=C/C=C(\C)C[C@@H](C)/C=C(C)\C=C\[C@H]2CC=CC(=O)O2)C[C@@H](O)[C@@H]1C [16-Oxo-Ratjadone 8, (R)-6-((R,1E,3Z,7E,9E)-11-((2S,4R,5S,6S)-4-hydroxy-5-methyl-6-((E)-prop-1-en-1-yl)tetrahydro-2H-pyran-2-yl)-3,5,7-trimethyl-11-oxoundeca-1,3,7,9-tetraen-1-yl)-5,6-dihydro-2H-pyran-2-one]
IC50 [6]: 52.5 nM | IC50 ([7]; Mus musculus, L929, 120 h): 12.6 nM | IC50 [8]: 2.57 nM | IC50 ([3]; Homo sapiens, SK-OV-3, 120 h, read-out: IC50 [nM] SK-OV-3, growth inhibition, 5 days of incubation, MTT assay): 0.24 nM | IC50 ([4]; Homo sapiens, A549, 120 h, read-out: IC50 [nM] A-549, growth inhibition, 5 days of incubation, MTT assay): 1.76 nM | IC50 ([5]; Homo sapiens, MCF7, 120 h, read-out: IC50 [nM] MCF-7, growth inhibition, 5 days of incubation, MTT assay): 0.22 nM

SMILES: [N-]=[N+]=Nc1ccc(C(=O)NCCCC[C@H](NC(=O)CC[C@H](NC(=O)CC[C@H](NC(=O)c2ccc(NCc3cnc4nc(N)nc(O)c4n3)cc2)C(=O)O)C(=O)O)C(=O)O)cc1 [FA-N3-6, (3S,8S,13S)-1-(4-(((2-amino-4-hydroxypteridin-6-yl)methyl)amino)phenyl)-19-(4-azidophenyl)-1,6,11,19-tetraoxo-2,7,12,18-tetraazanonadecane-3,8,13-tricarboxylic acid]
IC50 [2, 9]: > 118000 nM | IC50 [4, 11]: > 118000 nM

SMILES: CCCOc1cc(N)ccc1C(=O)OCCN(CC)CC [propoxycaine]
stability in mouse plasma [1]: unstable
